Results from patent US7585941B2 (priority 2004, dated 2009).
Like-named read-outs stand apart in the source and are kept apart here.

Experiments:
hMOR-1 = hMOR-1 (Homo sapiens, UniProt P35372); test: biochemical; type: binding
rMOR-1A [1] = biological target: T1, rMOR-1A (Rattus norvegicus, UniProt P33535); test: biochemical; type: biochemical
rMOR-1D [2] = biological target: rMOR-1D (Rattus norvegicus, UniProt P33535, I238V); test: biochemical; type: biochemical
rMOR-1 (no Exon 4) = rMOR-1 (no Exon 4) (Rattus norvegicus, UniProt P33535); test: biochemical; type: biochemical
rMOR-1C1 [3] = biological target: T2, rMOR-1C1 (Rattus norvegicus, UniProt P33535); test: biochemical; type: biochemical
rMOR-1 [4] = biological target: T3, rMOR-1 (Rattus norvegicus, UniProt P33535); test: biochemical; type: biochemical
hMOR-1B2 = hMOR-1B2 (Homo sapiens, UniProt P35372); test: biochemical; type: binding
[5] = as an analgesic and as a respiratory depressant; background statement; cited from earlier work
rMOR-1C1 [6] = biological target: T2, rMOR-1C1; test: biochemical; type: binding
hMOR-1A = hMOR-1A (Homo sapiens, UniProt P35372); test: biochemical; type: binding
hMOR-1B4 [7] = biological target: hMOR-1B4 (Homo sapiens, UniProt P35372); test: biochemical; type: binding
hMOR-1B3 = hMOR-1B3 (Homo sapiens, UniProt P35372); test: biochemical; type: binding
rMOR-1A [8] = biological target: T1, rMOR-1A; test: biochemical; type: binding
rMOR-1D [9] = biological target: T4, rMOR-1D (Rattus norvegicus, UniProt P33535); test: biochemical; type: biochemical
rMOR-1 (no E4) = biological target: T5, rMOR-1 (no E4) (Rattus norvegicus, UniProt P33535); test: biochemical; type: binding
T5 construct: rMOR-1 no E 4; expressed in transfected cells

rMOR-1 [10] = biological target: T3, rMOR-1; type: binding
hMOR-1B1 = hMOR-1B1 (Homo sapiens, UniProt P35372); type: binding
rMOR-1D [11] = biological target: T4, rMOR-1D; test: biochemical; type: binding
hMOR-1Y = hMOR-1Y (Homo sapiens, UniProt P35372); test: biochemical; type: binding
hMOR-1 variants = details: for range of the maximal inhibitions among the variants: relative efficacy, Table 5
hMOR-1B4 [12] = biological target: hMOR-1B4 (Homo sapiens, UniProt P35372, I109V); test: biochemical; type: binding
hMOR-1B5 = hMOR-1B5 (Homo sapiens, UniProt P35372); details: cho cells

## Endomorphin 2
hMOR-1
  fold less potent in competing binding to hMOR-1: 5- to 7 fold

## Endomorphin 1
rMOR-1A [1]
  EC50/Ki: 2.3
  Max Stim (%): 205 ± 34%
rMOR-1D [2]
  EC50/Ki: 25.6
  Max Stim (%): 145 ± 29%
rMOR-1 (no Exon 4)
  EC50/Ki: 25.9
  Max Stim (%): 189 ± 16%
rMOR-1C1 [3]
  EC50/Ki: 13.8
  Max Stim (%): 377 ± 40%
rMOR-1 [4]
  EC50/Ki: 3.4
  Max Stim (%): 320 ± 23%
hMOR-1B2
  affinity for hMOR-1B2 compared to other variants (in words): relative lower affinities

## COc1ccc2c3c1O[C@H]1[C@@H](O)C=C[C@H]4[C@@H](C2)N(C)CC[C@@]341 [codeine]
[5]
  effectiveness orally relative to parenterally: approximately 60%

## CC(C)C[C@H](NC(=O)[C@H](Cc1ccccc1)NC(=O)CNC(=O)[C@@H](CO)NC(=O)[C@@H](N)Cc1ccc(O)cc1)C(=O)N[C@H](C(=O)O)[C@@H](C)O [DSLET, [D-Ser^2, Leu^5]enkephalin-Thr^6]
rMOR-1C1 [6]
  Ki: 45 ± 8.7 nM
hMOR-1A
  Ki: 19.7 ± 7.7 nM
hMOR-1B4 [7]
  Ki: 22.3 ± 2 nM
hMOR-1B3
  Ki: 16.4 ± 2.8 nM
rMOR-1A [1]
  EC50: 127 ± 45 nM
  Max Stim (%): 206 ± 23%
rMOR-1A [8]
  Ki: 44.5 ± 5.1 nM
rMOR-1D [2]
  Max Stim (%): 187 ± 19%
rMOR-1D [9]
  EC50: 540 ± 129 nM
hMOR-1
  Ki: 19.1 ± 5.8 nM
rMOR-1 (no E4)
  Ki: 24.2 ± 1.9 nM
rMOR-1 (no Exon 4)
  EC50: 690 ± 179 nM
  Max Stim (%): 226 ± 15%
rMOR-1C1 [3]
  EC50: 253 ± 75 nM
  Max Stim (%): 312 ± 19%
rMOR-1 [10]
  Ki: 30.9 ± 1.9 nM
hMOR-1B1
  Ki: 13.9 ± 4.9 nM
rMOR-1D [11]
  Ki: 27.3 ± 7.3 nM
rMOR-1 [4]
  EC50: 76 ± 17 nM
  Max Stim (%): 251 ± 5%
hMOR-1Y
  Ki: 15.4 ± 3.5 nM
hMOR-1B2
  Ki: 34.4 ± 6.4 nM

## C[C@@H](NC(=O)[C@@H](N)Cc1ccc(O)cc1)C(=O)NCC(=O)N(C)[C@@H](Cc1ccccc1)C(=O)NCCO [DAMGO, [D-Ala^2,MePhe^4,Gly(ol)^5]enkephalin]
rMOR-1A [1]; percent increase over basal binding, rMOR-1A
  Max Stim (%): 176 ± 24%
hMOR-1 variants
  range of the maximal inhibitions among the variants: 63-100%
rMOR-1D [2]; percent increase over basal binding, rMOR-1D
  Max Stim (%): 113 ± 22%
rMOR-1 (no Exon 4); percent increase over basal binding, rMOR-1 (no Exon 4)
  Max Stim (%): 196 ± 37%
rMOR-1C1 [3]; percent increase over basal binding, rMOR-1C1
  Max Stim (%): 233 ± 45%
rMOR-1 [4]; percent increase over basal binding, rMOR-1
  Max Stim (%): 233 ± 44%

## CC[C@H](C)[C@H](NC(=O)[C@H](C)NC(=O)[C@H](CC(N)=O)NC(=O)[C@H](CCCCN)NC(=O)[C@H](Cc1ccccc1)NC(=O)[C@H](CC(C)C)NC(=O)[C@@H](NC(=O)[C@@H](NC(=O)[C@H](CC(C)C)NC(=O)[C@@H]1CCCN1C(=O)[C@@H](NC(=O)[C@H](CCC(N)=O)NC(=O)[C@H](CO)NC(=O)[C@H](CCCCN)NC(=O)[C@H](CCC(=O)O)NC(=O)[C@H](CO)NC(=O)[C@@H](NC(=O)[C@H](CCSC)NC(=O)[C@H](Cc1ccccc1)NC(=O)CNC(=O)CNC(=O)[C@@H](N)Cc1ccc(O)cc1)[C@@H](C)O)[C@@H](C)O)C(C)C)[C@@H](C)O)C(=O)N[C@H](C(=O)N[C@@H](CCCCN)C(=O)N[C@@H](CC(N)=O)C(=O)N[C@@H](C)C(=O)N[C@@H](Cc1ccc(O)cc1)C(=O)N[C@@H](CCCCN)C(=O)N[C@@H](CCCCN)C(=O)NCC(=O)N[C@@H](CCC(=O)O)C(=O)O)[C@@H](C)CC [β-Endorphin]
hMOR-1B4 [12]
  affinity for hMOR-1B4 compared to other variants (in words): lower affinities
hMOR-1 variants; cAMP inhibition, among human variants
  variation of IC50 values among the variants: 3- to 16 fold
hMOR-1 variants
  range of the maximal inhibitions among the variants: 72-100%
hMOR-1B5
  IC50 value variation between hMOR-1 and hMOR-1B5: over 16 fold
hMOR-1B2
  affinity for hMOR-1B2 compared to other variants (in words): lower affinities

## CC1(C)SSC(C)(C)[C@@H](NC(=O)[C@@H](N)Cc2ccc(O)cc2)C(=O)NCC(=O)N[C@@H](Cc2ccccc2)C(=O)N[C@H]1C(=O)O [DPDPE, [D-Pen^2, D-Pen-^5]enkephalin]
Human MOR-1 variants
  competition of [3H]DAMGO binding (in words): inactive
